Laboratory results from PubChem BioAssay AID1745859.

Target: Equilibrative nucleoside transporter 1 (Homo sapiens) (UniProt Q99808)
Assay: PubChem AID 1745859
Settings: U2OS JumpIn-ENT1 cells, TRACT impedance, adenosine response

Chain of Equilibrative nucleoside transporter 1 (Homo sapiens) (Q99808 whole entry, looked up): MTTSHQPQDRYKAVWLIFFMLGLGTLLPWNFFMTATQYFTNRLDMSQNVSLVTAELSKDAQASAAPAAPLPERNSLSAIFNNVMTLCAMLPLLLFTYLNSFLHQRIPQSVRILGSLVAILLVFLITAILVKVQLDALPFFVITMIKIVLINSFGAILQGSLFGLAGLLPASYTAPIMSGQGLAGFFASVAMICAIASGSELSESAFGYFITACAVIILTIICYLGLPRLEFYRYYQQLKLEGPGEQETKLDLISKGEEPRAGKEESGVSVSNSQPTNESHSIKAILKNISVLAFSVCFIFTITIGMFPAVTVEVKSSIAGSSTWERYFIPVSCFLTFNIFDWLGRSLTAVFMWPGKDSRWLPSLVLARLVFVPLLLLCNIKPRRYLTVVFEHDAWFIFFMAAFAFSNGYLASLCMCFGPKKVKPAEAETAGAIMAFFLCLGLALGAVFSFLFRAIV

IC50: 5.31 nM
Compound: NC(=O)C1CN(CCCCC(c2ccc(F)cc2)c2ccc(F)cc2)CCN1CC(=O)Nc1c(Cl)cc(N)cc1Cl (stereo unspecified)
